The values below come from patent US20240024446A1 (priority 2020, published 2024).

In series [1] the test system is C6 cells. The series is described as follows: In vitro potency test/neutralization assay with fish sera on C6 cells. It is filed as cell-based, rats. As to the method:
In line with Example 7, an in vitro potency test/neutralization assay was performed with the sera raised as described in Example 8. For this, C6 cells were seeded at 2.0*10^4 cells/ml, 100 μl per well, and grown at 37° C., 5% CO2 for 3 days. Cells were incubated for 48 h, with a combination of 20 μg/ml AFB1 and 32× diluted serum derived from fish vaccinated with AFB1-KLH in GNE or vaccinated with a placebo. Percentages of live cells were determined by microscopical evaluation.

The test system of series [2] is C6 cells. Type of series: cell-based, rats.
The format of series [3] is in vivo. Particulars: pig plasma; DON bolus 0.05 mg/kg at 11 weeks of age; DON-KLH = pigs immunised IM at 3 and 6 weeks, DON = control pigs. Here is the method:
Ten 3 week old pigs were used in the study, divided over 2 groups of 5 pigs each. The pigs in Group 1 were immunised IM twice at 3 and 6 weeks of age with DON-KLH (Test Article 1; example1). Group 2 served as a control and only received a control fluid. At the age of 11 weeks the animals were each administered DON (Fermentek, Israel) via a bolus at a dose of 0.05 mg/kg which (based on the daily feed intake) resembled a contamination level of 1 mg/kg feed. Blood samples of the pigs were taken juts before DON administration and 0.25, 0.5, 0.75, 1, 1.5, 2, 3, 4, 6, 8, and 12 h post DON administration.
Plasma analysis of unbound DON was done using a validated LC-MS/MS method on an Acquity® UPLC system coupled to a Xevo® TQ-S MS instrument (Waters, Zellik, Belgium). The lower limit of quantification of DON in pig plasma using this method is 0.1 ng/ml.
Toxicokinetic modeling of the plasma concentration-time profiles of DON was done by noncompartmental analysis (Phoenix, Pharsight Corporation, USA). Following parameters were calculated: area under the curve from time zero to infinite (AUC0→∞), maximal plasma concentration (Cmax), and time at maximal plasma concentration (tmax).

Several values for one entry are separate records, joined by “and”; a condition that tells them apart may be missing. Identical values can stand only once. A value given as a limit tells only on which side of the number the result lay.

Take `COc1cc2c(c3oc(=O)c4c(c13)CCC4=O)[C@@H]1C=CO[C@@H]1O2` [AFB1, Aflatoxin B1]: in the series on C6 cells [1], the “Percentage live cells after incubation with AFB1 and diluted fish serum” value was 95% and 65%. The “concentration from which toxic on C6 cells (dose response curve)” value in the series with C6 cells [2] was at least 20000 ng/mL.

Take `CC1=C[C@H]2O[C@@H]3[C@H](O)C[C@](C)([C@@]2(CO)[C@H](O)C1=O)[C@]31CO1` [DON, deoxynivalenol]: in series [3], the “AUC0→∞ of unbound DON” value stood at 187 ± 33 and the “Cmax of unbound DON” value worked out at 30.8 ± 2.5.
